From PubChem BioAssay (NCI)
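Growth conditions: 96-well plates. Treatment: test compound, 48 hours, 5 concentrations. Analysis: linear interpolation between bracketing concentrations; unreached endpoints set to highest concentration. TGI is the concentration that stops growth completely.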

Columns and labels:
Experiment in all cases: growth of human tumour cells (NCI), 48 h
HT29 colon = tested on: HT29 colon
MOLT-4 leukemia = tested on: MOLT-4 leukemia
SNB-19 CNS = tested on: SNB-19 CNS
LOX IMVI melanoma = tested on: LOX IMVI melanoma
HOP-92 NSCLC = tested on: HOP-92 NSCLC
HCT-15 colon = tested on: HCT-15 colon
SF-295 CNS = tested on: SF-295 CNS
NCI-H522 lung = tested on: NCI-H522 lung
SN12C renal = tested on: SN12C renal
SK-OV-3 ovarian = tested on: SK-OV-3 ovarian

| Structure (SMILES) | TGI (HT29 colon) | TGI (MOLT-4 leukemia) | TGI (SNB-19 CNS) | TGI (LOX IMVI melanoma) | TGI (HOP-92 NSCLC) | TGI (HCT-15 colon) | TGI (SF-295 CNS) | TGI (NCI-H522 lung) | TGI (SN12C renal) | TGI (SK-OV-3 ovarian) |
| --- | --- | --- | --- | --- | --- | --- | --- | --- | --- | --- |
| COc1cccc(-c2nccc3c(OCc4ccccc4)c(OC)c(OC)cc23)c1 | > 100 µM | > 100 µM | > 100 µM | > 100 µM | > 100 µM | > 100 µM | > 100 µM | > 100 µM | > 100 µM | > 100 µM |
| Cn1ccnc1CCc1ccc(Cl)c(Cl)c1 | > 100 µM | > 100 µM |  | > 100 µM | > 100 µM | > 100 µM | > 100 µM | > 100 µM | > 100 µM | > 100 µM |
| CN(C)c1ccc(/C=C/C(=O)O)cc1 | > 100 µM | > 100 µM | > 100 µM | > 100 µM |  | > 100 µM | > 100 µM | > 100 µM | > 100 µM | > 100 µM |
| CC12ON(P(=O)(c3ccccc3)c3ccccc3)C(C)(c3ccccc31)c1ccccc12 | > 100 µM | > 100 µM | > 100 µM | > 100 µM | > 100 µM | > 100 µM | > 100 µM | > 100 µM | > 100 µM | > 100 µM |
| O=C(CSc1nnc(-c2ccc(N=Cc3ccc(Cl)cc3)cc2)o1)Nc1ccc([N+](=O)[O-])cc1 | 35.9 µM | 36.7 µM | 33.7 µM | 22.4 µM |  | 32.6 µM | 79.4 µM | 38.3 µM | 37.7 µM | > 100 µM |
| O=[N+]([O-])c1ccc([N+]2=NC(c3ccccc3)=NN(c3ccccc3)C2)cc1 | > 100 µM | > 100 µM | > 100 µM | > 100 µM | > 100 µM | > 100 µM | > 100 µM | > 100 µM | > 100 µM | > 100 µM |
| Cn1c(=O)c(C(=O)NC(=O)NCCCCCOC(=O)CCCCCCCCCCC(=O)OCCCCCNC(=O)NC(=O)c2cn(Cc3ccccc3)c(=O)n(C)c2=O)cn(Cc2ccccc2)c1=O | > 100 µM |  | > 100 µM | > 100 µM | > 100 µM | > 100 µM |  | > 100 µM | > 100 µM | > 100 µM |
| CCOC(=O)C(C)(C)Oc1ccc2c(-c3ccc(Cl)cc3)c(-c3ccc(Cl)cc3)c(=O)oc2c1 | > 100 µM | > 100 µM | > 100 µM | > 100 µM |  | > 100 µM | > 100 µM |  | > 100 µM |  |
| CCC(=O)/C(=C\I)c1ccccc1 | 2.51 µM | 7.08 µM | 29 µM | 2.96 µM | 4.27 µM | 3.37 µM | 33.4 µM |  | 5.29 µM | 30.2 µM |
| CCCCn1c2ccccc2c2ccc3c(c21)C(=O)C=CC3=O | 3.46 µM | > 100 µM | > 100 µM | > 100 µM | > 100 µM | > 100 µM | > 100 µM | > 100 µM | > 100 µM | > 100 µM |
| CCN(CC)CCOc1ccc(C(O)(Cc2ccc(OC)cc2)c2ccccc2)cc1 (configuration not stated) | 14.6 µM | 38.4 µM | 67.5 µM | 29 µM | 46 µM | 51 µM | 33.1 µM | 40.9 µM | > 100 µM | 57.9 µM |
| COC(=O)c1ccccc1C1=C([N+](=O)[O-])C(c2ccccc2)C(C#N)=C(N)O1 (configuration not stated) | > 100 µM | > 100 µM | > 100 µM | > 100 µM | > 100 µM | 46.6 µM | > 100 µM | 30.8 µM | > 100 µM | > 100 µM |
| COC12CCC(C(C(=O)c3ccccc3)=C1C(=O)c1ccccc1)C(O)C2 (configuration not stated) | > 100 µM | > 100 µM | > 100 µM |  | > 100 µM | > 100 µM | > 100 µM | > 100 µM | > 100 µM | > 100 µM |
| S=c1sc2cscc2s1 | > 100 µM | > 100 µM | 46 µM | > 100 µM | 70.3 µM | > 100 µM | > 100 µM | 36.7 µM | > 100 µM | 77.3 µM |
| C[n+]1c2ccccc2c(/C=N\NS(=O)(=O)c2ccc(Cl)cc2)c2ccccc21 | > 100 µM | > 100 µM | > 100 µM | > 100 µM | > 100 µM | > 100 µM | > 100 µM | > 100 µM | > 100 µM | > 100 µM |
| CCOC(=O)C(=O)CC(=O)C1=C(c2ccccc2OC)CC(c2cccs2)=CC1=O | > 100 µM | > 100 µM | > 100 µM | > 100 µM | > 100 µM | > 100 µM | > 100 µM | > 100 µM | > 100 µM | > 100 µM |
| Cc1c(-c2nnc(-c3ccccc3)o2)c(=O)n(-c2ccccc2)n1C | > 100 µM | > 100 µM | > 100 µM | > 100 µM | > 100 µM | > 100 µM | > 100 µM | > 100 µM | > 100 µM | > 100 µM |
| C=C1CCCC2[C@](C)(CC3=C(O)C(=O)C=C(OC)C3=O)[C@@H](C)CC[C@]12C (some centres not stated) | 36.1 µM |  |  | > 100 µM |  | 49.6 µM | 13.7 µM | 28.5 µM | > 100 µM | 62.2 µM |
